Earlier results in US6649649B1, “Method of treating colonic adenomas” (Merck & Co., Inc., priority 1995, dated 2003).

Key:
incident colon cancer = details: persons who regularly used aspirin compared to those who used no aspirin
sporadic colonic polyps = details: early sporadic polyps (67% of the polyps were <5 mm)
[1] = system: polyps in patients with familial polyposis

SMILES: CS(=O)(=O)Nc1ccc([N+](=O)[O-])cc1OC1CCCCC1 [NS-398]
- analgesic effect (rat): analgesic effects
- antiinflammatory effect (rat): antiinflammatory
- antipyretic effect (rat): antipyretic
- ulcerogenicity (rat): without being ulcerogenic
- selectivity for inhibition of either PGHS-1 or PGHS-2 (PGHS-1 or PGHS-2): selective PGHS-2 inhibitor

SMILES: CC(=O)Oc1ccccc1C(=O)O [aspirin]
- lower risk of incident colon cancer (incident colon cancer): 40%
- selectivity for inhibition of either PGHS-1 or PGHS-2 (PGHS-1 or PGHS-2): little selectivity

SMILES: COc1ccc2c(c1)c(CC(=O)O)c(C)n2C(=O)c1ccc(Cl)cc1 [indomethacin]
- selectivity for inhibition of either PGHS-1 or PGHS-2 (PGHS-1 or PGHS-2): little selectivity

SMILES: CC1=C(CC(=O)O)c2cc(F)ccc2/C1=C\c1ccc([S+](C)[O-])cc1 (centres unmarked) [sulindac]
- regression of sporadic colonic polyps (sporadic colonic polyps): did not result in a regression
- polyp regression [1]: results in polyp regression
- inhibition of PGHS-1 and PGHS-2 (PGHS-1 or PGHS-2): inhibiting both PGHS-1 and PGHS-2
